According to patent US20130203635A1, “NUCLEIC ACID LIGATION METHOD” (priority 2012, published 2013):

B1: Pyrococcus horikoshii 2',3'-cyclic phosphate RNA ligase (RtcB) (protein)
chain: MVVPLKRIDKIRWEIPKFDKRMRVPGRVYADEVLLEKMKNDRTLEQATNVAMLPGIYKYSIVMPDGHQGYGFPIGGVAAFDVKEGVISPGGIGYDINCGVRLIRTNLTEKEVRPRIKQLVDTLFKNVPSGVGSQGRIKLHWTQIDDVLVDGAKWAVDNGYGWERDLERLEEGGRMEGADPEAVSQRAKQRGAPQLGSLGSGNHFLEVQVVDKIFDPEVAKAYGLFEGQVVVMVHTGSRGLGHQVASDYLRIMERAIRKYRIPWPDRELVSVPFQSEEGQRYFSAMKAAANFAWANRQMITHWVRESFQEVFKQDPEGDLGMDIVYDVAHNIGKVEEHEVDGKRVKVIVHRKGATRAFPPGHEAVPRLYRDVGQPVLIPGSMGTASYILAGTEGAMKETFGSTCHGAGRVLSRKAATRQYRGDRIRQELLNRGIYVRAASMRVVAEEAPGAYKNVDNVVKVVSEAGIAKLVARMRPIGVAKG

Assays:
human RtcA = human RtcA (Homo sapiens, UniProt O00442); conditions: read-out: ATP KM; cited from earlier work
P. horikoshii RtcB [1] = experiment: P. horikoshii RtcB RNA ligation assay; assay type: biochemical, Pyrococcus horikoshii; conditions: Archease 0.25 μM, NTP 100 μM, RtcB 5 μM (FIG. 10B, 11B)
Excerpt: FIG. 2. P. horikoshii RtcB catalyzed ligation of 3′-P and 5′-OH RNA termini. P. horikoshii RtcB requires Mn^2+ and GTP for ligation. […] The lane labeled “2′-deoxy” is a ligation reaction using the tRNA mimic substrate but with a 3′-P/2′-H termini on its 5′ fragment. The lane labeled “C98A” is a ligation reaction with RtcB that has a C98A substitution within the predicted metal-binding site.
RtcB from the archaeal domain of life likewise catalyzes the GTP-dependent ligation of 3′-P and 5′-OH RNA termini. The crystal structure of RtcB from a hyperthermophilic archaeon, Pyrococcus horikoshii, was determined as part of a structural genomics project (21). […] The P. horikoshii homologue has 29% amino-acid sequence identity to E. coli RtcB, and 49% identity to the human ligase (HSPC117). To investigate if RtcB from archaea catalyzes the GTP-dependent ligation of 3′-P and 5′-OH RNA termini, we synthesized a P. horikoshii rtcB gene and produced soluble enzyme in E. coli. […] The P. horikoshii ligase also required a 2′-OH on the terminal nucleotide of the 5′ RNA fragment.
RNA Ligation Assay. Ligation assays with single-stranded RNA as the substrate used two 10-nt oligonucleotides that were synthesized by Integrated DNA Technologies (15). […] The 3′ RNA fragment had hydroxyl groups on each end. The sequence of the 5′ fragment was FAM-5′-AAAUAACAAA-3′-P (SEQ ID NO:6) and the sequence of the 3′ RNA fragment was 5′-AAAUAACAAA-3′ (SEQ ID NO:6). Ligation reactions were performed in 10-μL solutions consisting of 50 mM Bis-Tris buffer, pH 7.0, containing NaCl (300 mM), […] (0.25 mM), GTP (100 μM), each RNA fragment (1 μM), and RtcB (10 μM). Reaction mixtures were incubated at 70° C. for 1 h prior to the addition of water (40 μL) and RNA-loading buffer (50 μL). Reaction mixtures were subjected to electrophoresis and visualized as previously described in the previous examples.
The ability of Archease to activate P. horikoshii RtcB was tested in reactions using ssRNA substrates. Ligation reactions included a 10-nt 5′ RNA fragment and a 10-nt 3′ RNA fragment. […] The 3′ RNA fragment had hydroxyl groups on each end. The sequence of the 5′ fragment was FAM-5′-AAAUAACAAA-3′-P (SEQ ID NO:6) and the sequence of the 3′ RNA fragment was 5′-AAAUAACAAA-3′ (SEQ ID NO:6). Ligation reactions were performed in 50-μL solutions consisting of 50 mM Tris-HCl buffer, pH 7.4, containing NaCl (300 mM), MnCl2 (0.25 mM), GTP (100 μM), RNA fragments (100 pmol of each), and P. horikoshii RtcB (5 μM).
Ligation reaction mixtures were set up as described above, and each was divided into two tubes. No Archease was added to one set of reaction mixtures (FIG. 10A), and Archease was added to a concentration of 0.25 μM to the other set (FIG. 10B). […] Archease had no effect on ligation reactions that used 2′-F RNA.
We tested the ability of Archease to enable RtcB to use cofactors other than GTP or dGTP. Ligation reaction mixtures with RtcB were set up as described above, and each was divided into two tubes. No Archease was added to one set of reaction mixtures (FIG. 11A), and Archease was added to a concentration of 0.25 μM to the other set (FIG. 11B). The various NTPs were included at a concentration of 100 μM.

E. coli RtcA = E. coli RtcA (Escherichia coli, UniProt P46849); conditions: read-out: ATP KM; cited from earlier work
[2] = test system: Escherichia coli RtcB ligase; experiment: E. coli RtcB RNA ligation assay (3′-P and 5′-OH termini, urea-polyacrylamide gel); assay type: biochemical
Excerpt: FIG. 1. […] (A) RNA ligation substrate that mimics a broken tRNA anti-codon. FAM label allows visualization in a urea-polyacrylamide gel. […] (B) Cofactor- and metal-dependence of ligation. Reactions contain manganese, except in the “—Mn^2+” lane. The lane labeled “C78A” is a ligation reaction performed with RtcB that has a C78A substitution within the predicted metal binding site. (C) Ligation assays using GTP analogues as cofactors. […] (E) RNA termini specificity of RtcB. Modifications to the ligatable ends of the tRNA mimic substrate were made as indicated and tested in ligation reactions.
To assay for ligation, we initially used two single-stranded RNA (ssRNA) oligos that were each 10 nucleotides in length. The 5′ RNA fragment was labeled with 6-carboxyfluorescein (FAM) at its 5′ end and phosphorylated at its 3′ end. The 3′ RNA fragment had hydroxyl groups at each end. We intended to convert the 3′-P into a 2′,3′-cyclic phosphate by incubation with RtcA and ATP, so as to produce a suitable substrate for RtcB.
These reactions were performed with high concentrations of GTP analogues to ensure saturation of RtcB.
We investigated the RNA termini structure requirements for ligation by modifying the ends of our tRNA mimic substrate. First, all four combinations of either a phosphate or hydroxyl group at each termini were sampled while maintaining a 2′-OH on the 5′ side of the ligation junction. […] Next, the importance of the terminal ribose 2′-OH for ligation was probed by replacing this hydroxyl group with either hydrogen (2′-H) or fluorine (2′-F).

P. horikoshii RtcB [3] = experiment: 14C-labeled GTP binding assay; design: species or system Pyrococcus horikoshii
Procedure: Structure of the RtcB-Histidine-GMP Covalent Intermediate. To determine the optimal reaction conditions that enable formation of the RtcB-GMP covalent intermediate, ^14C-labeled GTP binding studies were performed (7). […] Under these conditions, the maximal GMP:RtcB molar ratio was determined to be (0.76±0.02):1. No binding of GTP to RtcB was detected in the absence of Mn(II). Using these reaction conditions, we formed the RtcB-GMP intermediate and removed unbound Mn(II), GTP, and PPi by gel-filtration chromatography. The protein was concentrated to 200 μM, and crystals of this complex diffracted to a resolution of 2.4 Å.
^14C-labeled GTP Binding Assays. […] Absorbance readings at A260 and A280 were obtained for each fraction. The protein fractions have high A280 readings, whereas the fractions with free GTP have higher A260 readings. In fractions containing protein, the RtcB concentrations were calculated from the A280 reading using an extinction coefficient of 62,340 M^−1 cm^−1 (ExPASy). The concentration of [8-^14C]GTP in the protein fractions was determined by liquid scintillation counting. Each 0.5-mL fraction was mixed with 3.5 mL of Ultima Gold MV liquid scintillation cocktail (Perkin Elmer) in a 4-mL vial, and counts were read on a MicroBeta TriLux liquid scintillation counter (Perkin Elmer). […] Under these conditions, the GTP:RtcB molar ratio was determined to be (0.76±0.02):1. […]

[4] = target: T1, Pyrococcus horikoshii Archease
T1 chain: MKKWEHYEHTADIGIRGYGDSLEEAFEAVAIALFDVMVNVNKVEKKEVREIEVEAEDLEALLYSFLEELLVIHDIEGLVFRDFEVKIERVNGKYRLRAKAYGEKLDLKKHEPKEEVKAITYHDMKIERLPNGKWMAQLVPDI

E. coli RtcA, sequence (P46849 whole entry): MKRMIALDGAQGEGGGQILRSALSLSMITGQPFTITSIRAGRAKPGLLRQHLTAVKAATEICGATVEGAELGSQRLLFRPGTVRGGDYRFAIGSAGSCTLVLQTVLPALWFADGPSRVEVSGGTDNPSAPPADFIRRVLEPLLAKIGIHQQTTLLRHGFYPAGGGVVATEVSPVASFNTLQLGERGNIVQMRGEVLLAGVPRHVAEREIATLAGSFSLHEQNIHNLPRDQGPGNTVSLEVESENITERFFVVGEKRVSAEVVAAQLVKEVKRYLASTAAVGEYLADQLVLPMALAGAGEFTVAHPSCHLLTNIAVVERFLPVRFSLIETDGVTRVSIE
human RtcA, sequence (O00442 whole entry): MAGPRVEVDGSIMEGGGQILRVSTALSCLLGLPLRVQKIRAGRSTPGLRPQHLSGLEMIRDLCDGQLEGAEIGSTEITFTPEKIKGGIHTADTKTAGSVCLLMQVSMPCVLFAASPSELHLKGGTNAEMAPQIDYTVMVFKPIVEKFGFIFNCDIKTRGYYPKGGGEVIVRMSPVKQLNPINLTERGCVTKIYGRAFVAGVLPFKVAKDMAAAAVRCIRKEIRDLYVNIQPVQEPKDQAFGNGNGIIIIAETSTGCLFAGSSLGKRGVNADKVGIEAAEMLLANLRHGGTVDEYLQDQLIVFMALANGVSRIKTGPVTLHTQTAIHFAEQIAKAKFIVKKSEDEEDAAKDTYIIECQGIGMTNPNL

Molecule	Km (human RtcA)	use as cofactor in RNA ligation with Archease (P. horikoshii RtcB [1])	Km (E. coli RtcA)	use as cofactor in ligation of 3′-P and 5′-OH RNA termini ([2]; in place of GTP, tRNA anticodon stem-loop mimic substrate, with Mn2+ (FIG. 1B, 1C))	maximal GMP:RtcB (GTP:RtcB) molar ratio (P. horikoshii RtcB [3]; RtcB 100 μM, GTP 1 mM, MnCl2 2 mM, 70° C. for 45 min)	binding of GTP to RtcB (P. horikoshii RtcB [3]; in the absence of Mn(II))	Km ([2]; titration with GTP, tRNA mimic substrate (FIG. 1D))	RNA ligation (urea-polyacrylamide gel of FAM-labeled ssRNA substrate and product) [4]
Nc1ncnc2c1ncn2[C@@H]1O[C@H](COP(=O)(O)OP(=O)(O)OP(=O)(O)O)[C@@H](O)[C@H]1O [ATP, adenosine-5′-triphosphate]	6 µM	enables RtcB to use ATP	20 µM	unable to substitute for GTP	–	–	–	–
Nc1nc2c(ncn2[C@@H]2O[C@H](COP(=O)(O)OP(=O)(O)OP(=O)(O)O)[C@@H](O)[C@H]2O)c(=O)[nH]1 [GTP, guanosine-5′-triphosphate]	–	selectively activated	–	–	0.76±0.02	No binding	< 16 µM	–
B1	–	–	–	–	–	–	–	the addition of Archease at concentrations that are lower than that of RtcB or RNA enhanced catalysis of RNA ligation
